Assay results as given in patent publication US20120122928A1 (priority 2010, published 2012).

Experiments:
Phytophthora infestans = type: in vivo; conditions: young tomato plants sprayed, active ingredient concentration of 100 (unit not given); inoculated 1 day after treatment; evaluation 7 days after inoculation; 100% = no infection
Plasmopara viticola = assay: Plasmopara test (grapevine) / protective; type: in vivo; conditions: young grapevine plants sprayed, active ingredient concentration 10 ppm; evaluation 6 days after inoculation; 100% = no infection
Protocol: Plasmopara Test (Grapevine)/Protective
To produce an appropriate active ingredient formulation, 1 part by weight of active ingredient is mixed with the specified amounts of solvent and emulsifier, and the concentrate is diluted with water to the desired concentration.
To test for protective efficacy, young plants are sprayed with the active ingredient formulation at the stated application rate. After the spray coating has dried on, the plants are inoculated with an aqueous spore suspension of Plasmopara viticola and then remain in an incubation cabin at approx. 20° C. and 100% relative air humidity for 1 day. Subsequently, the plants are placed in a greenhouse at approx. 21° C. and approx. 90% air humidity for 4 days. The plants are then moistened and placed in an incubation cabin for 1 day.
Evaluation follows 6 days after the inoculation. 0% means an efficacy which corresponds to that of the control, whereas an efficacy of 100% means that no infection is observed.
In this test, the following inventive compounds show, at an active ingredient concentration of 10 ppm, an efficacy of 70% or more: […]

Peronospora brassicae = assay: Peronospora test (oilseed rape seeds) / seed treatment; type: in vivo; conditions: dose 50 g/dt, 14-day-old plants inoculated, incubated 7 days, infected leaf area, 100% = no disease
Protocol: Peronospora Test (Oilseed Rape Seeds)/Seed Treatment
The test was conducted under greenhouse conditions.
Oilseed rape seeds treated with an inventive active compound or a combination of inventive active compounds dissolved in N-methyl-2-pyrrolidone and diluted with water to the desired dose were sown in 6*6 cm vessels. The vessels contain 4 cm of a 1:1 mixture of steam-treated field soil and sand. The plants grew at 10° C.
14-day-old plants were inoculated with an aqueous spore suspension of Peronospora brassicae. The vessels containing the plants were incubated in a greenhouse at a temperature of 15° C. and a relative air humidity of 100% for 7 days.
The assessment of the test included the evaluation of the infected leaf area per plant. 0% means an efficiency corresponding to that of the control, while an efficiency of 100% means that no disease is observed.

Row | SMILES | % eff. (Phytophthora infestans) [%] | % eff. (Plasmopara viticola) [%] | % eff. (Peronospora brassicae) [%] | chromatographic logP (physchem; pH 2.7) | chromatographic logP (physchem; pH 7.8)
1 | O=C(Cn1nc(C(F)F)cc1C(F)F)N1CCC(c2nc(C3=NOC(C(F)(F)c4ccccc4)C3)cs2)CC1 (centres unmarked) [I-9, 2-[3,5-Bis(difluoromethyl)-1H-pyrazol-1-yl]-1-[4-(4-{5-[difluoro(phenyl)methyl]-4,5-dihydro-1,2-oxazol-3-yl}-1,3-thiazol-2-yl)piperidin-1-yl]ethanone] | 100 | 100 | 97 | 3.41 | –
2 | O=C(Cn1nc(C(F)F)cc1C(F)F)N1CCC(c2nc(C3=NOC(COc4c(F)cccc4F)C3)cs2)CC1 (centres unmarked) [I-43, 2-[3,5-Bis(difluoromethyl)-1H-pyrazol-1-yl]-1-[4-(4-{5-[(2,6-difluorophenoxy)methyl]-4,5-dihydro-1,2-oxazol-3-yl}-1,3-thiazol-2-yl)piperidin-1-yl]ethanone] | 95 | 100 | 98 | 3.3 | 3.23
3 | O=C(Cn1nc(C(F)F)cc1C(F)F)N1CCC(c2nc(C3=NOC(COc4ccccc4)C3)cs2)CC1 (centres unmarked) [I-2, 2-[3,5-Bis(difluoromethyl)-1H-pyrazol-1-yl]-1-(4-{4-[5-(phenoxymethyl)-4,5-dihydro-1,2-oxazol-3-yl]-1,3-thiazol-2-yl}piperidin-1-yl)ethanone] | 100 | 97 | 95 | 3.22 | 3.25
